Consider 13 molecules from ChEMBL document CHEMBL5465560, “Selectivity Literature for EUbOPEN Chemogenomic Library” (2024).

Experiment [1] concerns the target Cyclin-C/Cyclin-dependent kinase 19 (Homo sapiens) (UniProt Q9BWU1+P24863). In words: Selectivity interaction (ProQinase) EUB0000171b CDK19. It is filed as protein-complex assay.
The target in experiment [2] is Vascular endothelial growth factor receptor 2 (Homo sapiens, UniProt P35968). In words: Selectivity interaction (Ambit KINOMEscan and KiNATiv profiling in Jurkat cells) EUB0000090b KDR. It is filed as cell-based. The settings on record: at 1 µM.
Chain of Vascular endothelial growth factor receptor 2 (P35968 whole entry): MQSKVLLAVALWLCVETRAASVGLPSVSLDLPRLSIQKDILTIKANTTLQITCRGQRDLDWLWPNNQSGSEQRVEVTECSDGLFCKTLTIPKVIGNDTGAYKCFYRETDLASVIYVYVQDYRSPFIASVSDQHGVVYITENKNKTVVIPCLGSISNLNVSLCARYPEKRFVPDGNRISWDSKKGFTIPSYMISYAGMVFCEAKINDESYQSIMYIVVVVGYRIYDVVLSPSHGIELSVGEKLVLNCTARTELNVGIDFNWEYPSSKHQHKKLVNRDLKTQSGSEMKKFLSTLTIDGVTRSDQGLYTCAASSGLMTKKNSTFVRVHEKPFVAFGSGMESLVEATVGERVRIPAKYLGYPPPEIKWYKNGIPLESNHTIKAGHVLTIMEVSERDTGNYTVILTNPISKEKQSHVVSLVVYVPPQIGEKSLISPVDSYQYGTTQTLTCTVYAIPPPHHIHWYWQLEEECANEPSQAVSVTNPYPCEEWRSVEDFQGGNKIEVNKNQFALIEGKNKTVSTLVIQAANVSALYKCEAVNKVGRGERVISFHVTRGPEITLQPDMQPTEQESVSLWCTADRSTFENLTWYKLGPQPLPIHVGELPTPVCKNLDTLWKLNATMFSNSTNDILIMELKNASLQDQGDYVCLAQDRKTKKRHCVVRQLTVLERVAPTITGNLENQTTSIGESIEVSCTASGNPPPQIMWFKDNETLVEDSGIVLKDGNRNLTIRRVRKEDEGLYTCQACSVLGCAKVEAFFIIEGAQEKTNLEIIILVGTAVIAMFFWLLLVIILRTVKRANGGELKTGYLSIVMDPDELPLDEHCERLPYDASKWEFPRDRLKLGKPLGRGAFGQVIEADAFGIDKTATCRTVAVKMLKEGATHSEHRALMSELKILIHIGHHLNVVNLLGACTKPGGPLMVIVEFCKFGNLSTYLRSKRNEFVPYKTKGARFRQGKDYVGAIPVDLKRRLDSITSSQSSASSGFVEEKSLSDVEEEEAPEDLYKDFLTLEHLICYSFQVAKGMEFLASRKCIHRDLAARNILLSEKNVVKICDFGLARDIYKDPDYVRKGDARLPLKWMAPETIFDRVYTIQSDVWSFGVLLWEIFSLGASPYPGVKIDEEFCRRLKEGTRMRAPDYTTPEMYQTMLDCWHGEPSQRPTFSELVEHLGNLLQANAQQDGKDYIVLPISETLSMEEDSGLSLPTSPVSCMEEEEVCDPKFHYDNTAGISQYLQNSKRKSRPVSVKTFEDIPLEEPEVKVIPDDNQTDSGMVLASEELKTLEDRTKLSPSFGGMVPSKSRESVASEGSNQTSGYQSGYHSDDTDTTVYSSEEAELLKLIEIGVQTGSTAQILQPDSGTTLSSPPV
In experiment [3] the target is T1, Interleukin-1 receptor-associated kinase 4 (Homo sapiens) (UniProt Q9NWZ3).
T1 sequence (whole entry): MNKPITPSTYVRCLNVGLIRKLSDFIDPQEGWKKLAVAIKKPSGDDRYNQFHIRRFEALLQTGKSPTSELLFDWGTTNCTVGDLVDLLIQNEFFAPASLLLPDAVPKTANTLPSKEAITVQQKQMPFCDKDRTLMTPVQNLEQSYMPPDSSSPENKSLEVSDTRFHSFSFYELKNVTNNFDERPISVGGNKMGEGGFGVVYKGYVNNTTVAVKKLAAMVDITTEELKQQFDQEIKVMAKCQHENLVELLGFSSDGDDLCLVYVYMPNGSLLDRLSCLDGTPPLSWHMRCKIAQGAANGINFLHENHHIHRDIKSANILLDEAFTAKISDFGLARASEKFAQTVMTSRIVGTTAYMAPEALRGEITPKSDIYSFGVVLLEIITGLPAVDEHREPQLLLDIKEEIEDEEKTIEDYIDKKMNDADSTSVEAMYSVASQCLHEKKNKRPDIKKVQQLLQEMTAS
In words: Selectivity interaction (Ambit KINOMEscan and KiNATiv profiling in Jurkat cells) EUB0000090b IRAK4. The format is cell-based. The settings on record: at 1 µM.

The target in experiment [4] is RAC-alpha serine/threonine-protein kinase (Homo sapiens, UniProt P31749). Nature of the experiment: Selectivity interaction (Ambit KINOMEscan and KiNATiv profiling in Jurkat cells) EUB0000090b AKT1. The format is cell-based. The settings on record: at 1 µM.
Chain of RAC-alpha serine/threonine-protein kinase (P31749 whole entry): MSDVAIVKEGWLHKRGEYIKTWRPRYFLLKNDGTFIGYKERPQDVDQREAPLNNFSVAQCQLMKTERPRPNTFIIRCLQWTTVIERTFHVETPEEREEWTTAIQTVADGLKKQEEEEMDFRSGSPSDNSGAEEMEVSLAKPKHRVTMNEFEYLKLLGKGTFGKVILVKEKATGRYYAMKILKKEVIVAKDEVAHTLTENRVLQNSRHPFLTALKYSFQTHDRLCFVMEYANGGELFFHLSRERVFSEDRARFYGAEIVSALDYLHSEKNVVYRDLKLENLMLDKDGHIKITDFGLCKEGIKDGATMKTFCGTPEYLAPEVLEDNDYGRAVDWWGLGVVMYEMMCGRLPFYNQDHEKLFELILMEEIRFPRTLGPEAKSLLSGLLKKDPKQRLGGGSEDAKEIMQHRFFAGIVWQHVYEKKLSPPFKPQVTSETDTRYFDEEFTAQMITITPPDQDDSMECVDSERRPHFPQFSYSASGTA
Experiment [5] concerns the target Microtubule-associated serine/threonine-protein kinase 1 (Homo sapiens) (UniProt Q9Y2H9). Nature of the experiment: Selectivity interaction (KinomeScan (DiscoverX)) EUB0001079a MAST1. The settings on record: at 1 µM.
Experiment [6] has as its target Fibroblast growth factor receptor 3 (Homo sapiens, UniProt P22607). Nature of the experiment: Selectivity interaction (Millipore kinase profiler) EUB0000124b FGFR3. The settings on record: at 10 µM.
Experiment [7] has as its target STE20-like serine/threonine-protein kinase (Homo sapiens, UniProt Q9H2G2). Nature of the experiment: Selectivity interaction (KinomeScan (DiscoverX)) EUB0000092b SLK. The settings on record: at 10 µM.
Experiment [8] has as its target Dual specificity testis-specific protein kinase 1 (Homo sapiens) (UniProt Q15569). Nature of the experiment: Selectivity interaction (KinomeScan (DiscoverX)) EUB0000655a TESK1. The settings on record: at 10 µM.
Experiment [9] concerns the target T2, Serine/threonine-protein kinase RIO3 (Homo sapiens) (UniProt O14730).
T2 sequence (whole entry): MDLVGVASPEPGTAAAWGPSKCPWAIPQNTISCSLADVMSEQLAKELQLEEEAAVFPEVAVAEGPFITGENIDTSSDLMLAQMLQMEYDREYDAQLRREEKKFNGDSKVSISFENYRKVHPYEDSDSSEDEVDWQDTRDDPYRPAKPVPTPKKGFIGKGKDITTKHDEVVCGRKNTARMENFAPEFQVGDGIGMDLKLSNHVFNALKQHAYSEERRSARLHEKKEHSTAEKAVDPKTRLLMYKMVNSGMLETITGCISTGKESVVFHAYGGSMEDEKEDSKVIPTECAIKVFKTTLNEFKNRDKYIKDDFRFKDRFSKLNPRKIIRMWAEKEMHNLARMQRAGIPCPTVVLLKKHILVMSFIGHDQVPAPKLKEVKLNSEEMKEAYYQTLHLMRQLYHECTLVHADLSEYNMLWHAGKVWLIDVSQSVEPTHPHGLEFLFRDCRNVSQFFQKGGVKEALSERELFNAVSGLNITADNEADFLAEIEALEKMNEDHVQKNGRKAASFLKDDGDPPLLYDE
Nature of the experiment: Selectivity interaction (KinomeScan (DiscoverX)) EUB0000655a RIOK3. The settings on record: at 10 µM.

In experiment [10] the target is T3, cAMP-dependent protein kinase catalytic subunit PRKX (Homo sapiens) (UniProt P51817).
T3 sequence (whole entry): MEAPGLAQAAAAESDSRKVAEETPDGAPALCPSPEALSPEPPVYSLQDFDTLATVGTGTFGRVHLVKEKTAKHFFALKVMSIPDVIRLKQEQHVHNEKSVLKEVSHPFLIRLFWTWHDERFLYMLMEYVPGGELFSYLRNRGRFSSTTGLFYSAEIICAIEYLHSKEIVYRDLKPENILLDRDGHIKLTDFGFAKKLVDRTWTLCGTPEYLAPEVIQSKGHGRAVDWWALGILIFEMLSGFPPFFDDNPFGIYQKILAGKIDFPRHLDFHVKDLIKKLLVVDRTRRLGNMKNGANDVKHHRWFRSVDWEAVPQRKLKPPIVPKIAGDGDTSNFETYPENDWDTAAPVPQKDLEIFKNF
In words: Selectivity interaction (Kinase screening (Nanosyn)) EUB0000604a PRKX.

Experiment [11] has as its target Casein kinase I isoform gamma-1 (Homo sapiens) (UniProt Q9HCP0). In words: Selectivity interaction (SelectScreen profiling (Invitrogen)) EUB0000607a CSNK1G1. The settings on record: at 2 µM.
Experiment [12] has as its target Tyrosine-protein kinase BTK (Homo sapiens, UniProt Q06187). In words: Selectivity interaction (ActivX KiNativ screen (kinase selectivity in THP-1 cell lysates)) EUB0000639a BTK. The settings on record: lysate, at 1 µM. It is filed as subcellular.
The test system of experiment [13] is eIF-2-alpha kinase GCN2 (Homo sapiens), Q9P2K8 [S808G]. Nature of the experiment: Selectivity interaction (KinomeScan (DiscoverX)) EUB0000229b EIF2AK4. The settings on record: at 10 µM.
Experiment [14] concerns the target Leukocyte tyrosine kinase receptor (Homo sapiens, UniProt P29376). Nature of the experiment: Selectivity interaction (KinomeScan (DiscoverX)) EUB0000595a LTK. The settings on record: at 10 µM.
Experiment [15] addresses Mitogen-activated protein kinase 1 (Homo sapiens, UniProt P28482). In words: Selectivity interaction (KinomeScan (DiscoverX)) EUB0001619a MAPK1. The settings on record: at 1 µM.
In experiment [16] the target is Tyrosine-protein kinase FRK (Homo sapiens) (UniProt P42685). In words: Selectivity interaction (KinomeScan (DiscoverX)) EUB0000618a FRK. The settings on record: at 10 µM.
Chain of Tyrosine-protein kinase FRK (Homo sapiens) (P42685 whole entry): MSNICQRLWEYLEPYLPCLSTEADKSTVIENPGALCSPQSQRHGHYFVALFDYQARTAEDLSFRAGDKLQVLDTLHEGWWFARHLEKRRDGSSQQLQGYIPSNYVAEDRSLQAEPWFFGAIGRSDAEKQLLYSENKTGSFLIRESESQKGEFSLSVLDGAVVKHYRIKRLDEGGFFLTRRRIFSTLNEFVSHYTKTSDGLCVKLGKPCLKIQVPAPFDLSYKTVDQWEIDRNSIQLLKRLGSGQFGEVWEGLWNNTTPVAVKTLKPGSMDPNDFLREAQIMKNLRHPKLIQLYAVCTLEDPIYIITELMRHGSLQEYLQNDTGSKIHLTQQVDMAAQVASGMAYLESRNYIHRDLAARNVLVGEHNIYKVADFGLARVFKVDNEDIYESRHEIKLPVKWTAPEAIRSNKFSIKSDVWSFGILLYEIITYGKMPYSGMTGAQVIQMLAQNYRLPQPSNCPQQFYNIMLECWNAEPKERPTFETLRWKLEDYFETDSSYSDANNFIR

Chain of Microtubule-associated serine/threonine-protein kinase 1 (Homo sapiens) (Q9Y2H9 whole entry, looked up): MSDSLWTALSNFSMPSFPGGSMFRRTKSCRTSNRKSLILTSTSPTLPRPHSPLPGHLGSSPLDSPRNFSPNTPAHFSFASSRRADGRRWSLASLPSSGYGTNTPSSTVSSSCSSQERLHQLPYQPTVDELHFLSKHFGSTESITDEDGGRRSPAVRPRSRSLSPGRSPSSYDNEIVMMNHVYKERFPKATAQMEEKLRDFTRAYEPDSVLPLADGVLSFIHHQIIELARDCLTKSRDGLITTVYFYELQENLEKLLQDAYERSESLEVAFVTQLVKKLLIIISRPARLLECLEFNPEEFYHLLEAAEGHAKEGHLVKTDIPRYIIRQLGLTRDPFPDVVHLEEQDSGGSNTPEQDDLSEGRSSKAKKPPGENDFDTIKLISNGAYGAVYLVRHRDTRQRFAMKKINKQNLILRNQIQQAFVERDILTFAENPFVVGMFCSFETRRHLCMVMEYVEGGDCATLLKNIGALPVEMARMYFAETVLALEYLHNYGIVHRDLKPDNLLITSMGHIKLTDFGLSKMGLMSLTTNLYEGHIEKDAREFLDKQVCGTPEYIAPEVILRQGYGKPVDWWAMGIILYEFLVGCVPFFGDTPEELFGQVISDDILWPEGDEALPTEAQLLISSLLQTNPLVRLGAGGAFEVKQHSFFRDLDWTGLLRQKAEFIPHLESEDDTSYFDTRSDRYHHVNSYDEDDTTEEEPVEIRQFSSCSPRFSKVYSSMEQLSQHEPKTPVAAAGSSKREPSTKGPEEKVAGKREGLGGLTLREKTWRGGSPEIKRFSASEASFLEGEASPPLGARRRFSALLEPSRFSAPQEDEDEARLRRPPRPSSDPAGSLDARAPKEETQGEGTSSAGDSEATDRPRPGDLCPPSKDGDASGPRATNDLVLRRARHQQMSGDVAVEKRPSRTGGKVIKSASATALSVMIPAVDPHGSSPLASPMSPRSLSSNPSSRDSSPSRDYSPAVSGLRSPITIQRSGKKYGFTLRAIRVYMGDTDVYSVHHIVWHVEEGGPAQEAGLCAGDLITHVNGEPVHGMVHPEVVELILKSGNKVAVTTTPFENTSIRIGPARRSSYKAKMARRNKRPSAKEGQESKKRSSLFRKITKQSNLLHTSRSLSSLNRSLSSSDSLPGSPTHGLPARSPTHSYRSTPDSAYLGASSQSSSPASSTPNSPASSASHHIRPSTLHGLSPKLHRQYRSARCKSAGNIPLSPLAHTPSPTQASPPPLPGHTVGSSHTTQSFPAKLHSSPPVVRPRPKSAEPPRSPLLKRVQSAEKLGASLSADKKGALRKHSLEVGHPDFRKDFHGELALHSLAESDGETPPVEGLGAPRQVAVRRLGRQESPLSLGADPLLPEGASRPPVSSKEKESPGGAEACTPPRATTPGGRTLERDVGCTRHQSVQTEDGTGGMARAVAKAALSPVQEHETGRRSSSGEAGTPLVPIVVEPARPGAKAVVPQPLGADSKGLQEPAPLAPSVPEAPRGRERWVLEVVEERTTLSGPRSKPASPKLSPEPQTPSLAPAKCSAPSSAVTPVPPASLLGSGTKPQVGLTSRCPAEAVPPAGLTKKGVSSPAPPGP
Chain of Tyrosine-protein kinase BTK (Q06187 whole entry): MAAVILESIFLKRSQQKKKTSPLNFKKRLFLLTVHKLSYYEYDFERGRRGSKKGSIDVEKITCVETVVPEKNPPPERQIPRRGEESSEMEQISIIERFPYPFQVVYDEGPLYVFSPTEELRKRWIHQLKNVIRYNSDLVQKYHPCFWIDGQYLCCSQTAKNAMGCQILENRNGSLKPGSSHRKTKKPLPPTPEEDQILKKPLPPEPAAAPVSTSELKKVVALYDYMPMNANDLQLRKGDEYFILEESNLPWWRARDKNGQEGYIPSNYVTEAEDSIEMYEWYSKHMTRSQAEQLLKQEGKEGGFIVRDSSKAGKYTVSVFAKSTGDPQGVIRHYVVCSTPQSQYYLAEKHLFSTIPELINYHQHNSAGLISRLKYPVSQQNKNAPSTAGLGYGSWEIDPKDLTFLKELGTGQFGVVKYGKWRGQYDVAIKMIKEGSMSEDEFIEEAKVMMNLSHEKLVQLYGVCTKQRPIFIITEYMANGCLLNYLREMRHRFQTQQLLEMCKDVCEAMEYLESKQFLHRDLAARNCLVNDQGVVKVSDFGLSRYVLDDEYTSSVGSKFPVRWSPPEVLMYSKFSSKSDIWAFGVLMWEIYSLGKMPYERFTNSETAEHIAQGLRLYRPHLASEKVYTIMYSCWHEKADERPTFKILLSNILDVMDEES
Chain of Mitogen-activated protein kinase 1 (P28482 whole entry): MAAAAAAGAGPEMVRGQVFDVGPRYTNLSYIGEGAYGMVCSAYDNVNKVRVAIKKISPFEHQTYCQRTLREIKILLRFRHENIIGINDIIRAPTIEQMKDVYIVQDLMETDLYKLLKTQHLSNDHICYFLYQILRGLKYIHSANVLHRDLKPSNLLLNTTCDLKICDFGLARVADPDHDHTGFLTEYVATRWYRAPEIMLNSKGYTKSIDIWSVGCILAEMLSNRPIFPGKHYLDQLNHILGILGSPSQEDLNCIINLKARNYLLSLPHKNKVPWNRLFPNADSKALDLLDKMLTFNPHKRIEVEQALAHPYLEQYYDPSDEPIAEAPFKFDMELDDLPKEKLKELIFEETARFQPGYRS

Consider `C=CC(=O)Nc1cccc(C(=O)Nc2ccc(Nc3cc(-c4[nH]c(SC)nc4C)ccn3)cc2)c1`, for which the % of control is 72% in experiment [1] (at 1 µM) and 65% in [1] (at 5 µM).
On to `CN(C)C/C=C/C(=O)Nc1ccc(C(=O)N2CCCC(Nc3ncc(Cl)c(-c4c[nH]c5ccccc45)n3)C2)cc1` (configuration not stated), for which the % of control in experiment [2] came out at 86%; in experiment [3], 99%; in experiment [4] it was 92%.
Turning to `Nc1cnc(N2CCc3cc(S(=O)(=O)Nc4c(F)cc(Cl)cc4F)cc(N4CCCC4=O)c32)nc1` [TP-020n], the % of control in experiment [5] was found to be 97%.
`CC(=O)Nc1cccc(-n2c(=O)n(C3CC3)c(=O)c3c(Nc4ccc(I)cc4F)n(C)c(=O)c(C)c32)c1` had a % of control in [6] of 98%.
On to `CCC(=O)N1CCN(c2ccc(-n3c(=O)ccc4cnc5ccc(-c6cnc7ccccc7c6)cc5c43)cc2C(F)(F)F)CC1`, for which the % of control in experiment [7] was found to be 94%.
As to `CN(C)CCOc1ccc(-c2nc(-c3ccncc3)c(-c3ccc4c(c3)CC/C4=N\O)[nH]2)cc1`, the % of control in experiment [8] is 76%; in experiment [9], 82%.
As for `Cc1cnc(Nc2ccc(F)cc2Cl)nc1-c1c[nH]c(C(=O)N[C@H](CO)c2cccc(Cl)c2)c1`, the % of inhibition in experiment [10] was 3%.
With `CNC(=O)Nc1ccc(-c2nc(N3CC4CCC(C3)O4)c3cnn(C4CCC5(CC4)OCCO5)c3n2)cc1`, the % of inhibition in experiment [11] was -2%.
Regarding `CC[C@@H]1[C@H](F)C(=O)N[C@@H]1COc1nccc2cc(C(N)=O)c(OC)cc12` [ZIMLOVISERTIB], in experiment [12], the % of inhibition was -7.2%.
As for `COc1cc(N(C)c2ccnc3ccc(C(F)(F)F)cc23)cc(OC)c1OC`, in [13], the % binding was 100%.
In experiment [14], `COCC(=O)NC/C=C/c1ccc2ncnc(Nc3ccc(Oc4ccc(C)nc4)c(C)c3)c2c1` [CP-724714] came in with a % of control of 88%.
Regarding `N#Cc1cccc(-c2c[nH]c3ncnc(N4CCOCC4)c23)c1`, the % of control in experiment [15] is 98%.
The molecule `O[C@H]1CC[C@H](Nc2ncc3nc(Nc4c(F)cc(F)cc4F)n([C@H]4CCOC4)c3n2)CC1` had a % of control in experiment [16] of 100%.
